# Laboratory results published in patent publication US6552066B1, “Protein tyrosine kinase inhibitors for treating osteoarthritis” (priority 1995, dated 2003).
# Where two headings read alike, the source gives them in different places.
# Experiments:
# [1] = tested on: IL-1 induced release of 35S-labelled proteoglycans from chondrocytes; test: Chondrocyte cell culture matrix breakdown assay (IL-1 induced 35S release); type: cell-based, calf (bovine); conditions: for inhibition at 50 µM / inhibition at 10 µM: Bos taurus, Chondrocyte
# Protocol: A cell culture assay was used to measure the ability of the test compounds to slow the degradation of the extracellular matrix by a metalloproteinase. This assay measured the amount ^35S released from chondrocytes grown in a media with ^35S labeled sodium sulfate. The cell culture assay was carried out as follows:
# Two or three 1 to 3 week old calf joints were obtained from an abattoir. The proximal end of the shank was about 4-5′ long to facilitate immobilization in the holder. The joint was kept cool and transported on ice. The exterior of the intact joints was washed well with a suitable anti-microbial soap, rinsed clean with warm water, rinsed in betadine and then finally rinsed with 70% ethanol. Up to this point all steps were done in a manner to ensure that the joint was kept as clean as possible. All subsequent steps were performed in a sterile field (i.e., in a Edgeguard laminar flow tissue culture hood). The joint was immobilized and the synovial fluid was aspirated with a needle and syringe. The joint was then cut open to expose the articular cartilage using a #21 scalpel. Using locking hemostats, forceps and a #15 scalpel, the cartilage was excised in full thickness pieces. Care was taken not to cut too deep into the subchondral bone to prevent bleeding. The cartilage pieces were placed into a 50 mL centrifuge tube containing 25 mL of Delbecco's phosphate buffered saline (D-PBS) supplemented with 1% antibiotic solution (penicillin, streptomycin and fungizone; GIBCO/BRL). The slices from each joint were then placed into separate 50 mL centrifuge tubes. The D-PBS was decanted and replaced with 25 mL of fresh D-PBS supplemented with antibiotics and subsequently agitated gently.
# The cartilage pieces were transferred to a fresh 50 mL centrifuge tube and rinsed once more with 25 mL of D-PBS minus antibiotics. An enzymatic digestion solution containing 1 mg/mL of hyaluronidase in serum-free 1:1 DMEM/Ham's F-12 (DMEM/F12) was prepared. This solution was filter sterilized with 0.22 mm Milex-GV filter and kept on ice until ready to use. The cartilage pieces were digested with approximately 5 mL of hyaluronidase solution per joint for 2×15 minutes at 37° C. in the 50 mL centrifuge tube with gentle agitation at the 15 minute mark. This procedure removed residual hyaluronic acid from the surface of the chips. The enzymatic digestion solution was then aspirated and the cartilage pieces were rinsed with 25 mL of D-PBS.
# A second enzymatic digestion solution containing 2.5 mg trypsin and 2 mg collagenase P per mL serum-free DMEM/F12 was prepared. This solution was also filter sterilized with a 0.22 mm Millex-GV filter and kept on ice until ready to use. The cartilage pieces were digested with approximately 5 mL of trypsin: collagenase solution per joint for 2×15 minutes at 37° C. in the 50 mL centrifuge tube with gentle agitation at the 15 minute mark. This procedure removed the synovial fibroblasts and any adherent connective tissue from the surface of the chips. The enzymatic digestion solution was then carefully removed and saved and the cartilage pieces were rinsed with 25 mL of D-PBS.
# A third enzymatic solution containing 2 mgs of collagenase P (BMB) per mL serum-free DMEM/F12 was prepared. This solution was filter sterilized with a 0.22 mm Millex-GV filter and kept on ice until ready to use. The pre-digested cartilage pieces were finally digested with approximately 20 mL of enzymatic digestion solution per joint for 5-6 hours at 37° C. in a Bellco stirring digestion flask, at which point the cartilage was fully digested away.
# The enzymes in the synovial fibroblast and chondrocyte digest were neutralized by addition of an equal volume of DMEM/F12 supplemented with 5% fetal bovine serum. Fibroblasts were plated in DMEM at a cellular density of 6.6×10^3 cells per cm^2. […]
# stromelysin mRNA = test: Northern blot of IL-1-induced stromelysin mRNA in primary bovine chondrocytes; type: cell-based; conditions: 2 h preincubation, IL-1α 1 ng/ml 24 hours
# Protocol: The isolation of cartilage and the enzymatic degradation of cartilage was carried out as described in Example 1.
# Chondrocytes were recovered by addition of an equal volume of DMEM/F12 supplemented with 10% fetal bovine serum (FBS) to neutralize enzymes, filtration through a 70μm nylon Cell Strainer (Falcon), and centrifugation at 1000×g for ten minutes at room temperature. Chondrocytes were seeded in T-150 plates at 5×10^4 cells/cm^2 using 1:1 DMEM/F12, 10% FBS, 1% antibiotic solution (penicillin, streptomycin, fungizone: GIBCO/BRL), and incubated at 37° C., 5% CO2. Cells were refed with DMEM/F12 plus 10% FBS on days 4, 7, and 10. On day 11, test cultures (except for the+interleukin 1α control) were rinsed in phosphate buffered saline (PBS), and preincubated for 2 hours with 5 ml of serum-free DMEM/F12 containing one of the following protein kinase inhibitors:
# 1) Protein kinase A (PKA) inhibitors; 0.5 μM H88 (Seikagaku Corp.), 0.5 μMH89 (Seikagaku Corp.); 2) Protein kinase G (PKG) and PKA inhibitor; 5.0 μM H89; 3) Protein kinase C. (PKC) inhibitors; 0.5 μM Calphostin C (Calbiochem), 1.0 μM chelerythrine (Calbiochem); 4) CA^2+/Calmodulin Kinase II inhibitor; 5.0 μM KN93 (Seikagaku Corp.); 5) Protein tyrosine kinase (PTK) inhibitors; 50 μM Genistein (Calbiochem), 10 μM Herbimycin A (Calbiochem), 50 μM Tyrphostin A25 (AG 82) (Calbiochem), 50 μm Tyrphostin AG 126 (Calbiochem), 50 μM Tyrphostin B56 (AG 556) (Calbiochem), 20 μM DAPH (Calbiochem).
# Recombinant human interleukin 1 α (IL-1α) (R & D Systems) at 1 ng/ml was then added to all cultures (except the IL-1α control) for 24 hours in serum-free DMEM/F12 containing 1% antibiotic solution.
# RNA on the Northern blot was fixed to the membrane by baking at 80° C. for 30 minutes.
# Prehybridization (1.5 hours) and hybridization (overnight) of the Northern blot with the radioactive probes were performed in 50% formamide, 1×GIBCO/BRL hybridization solution, 0.1% SDS, and 10mM monobasic sodium phosphate, at 42° C. The blot was successively washed two times in 1×SSC/0.1% SDS (15 minutes/wash at room temperature), and two times in 0.2×SSC/0.1% SDS (30 minutes/wash at 55° C.). The blot was allowed to air dry, and was exposed to X-ray film, with intensifying screen, overnight at −70° C.
smiles,measurement,setting,value
N#CC(C#N)=Cc1cc(O)c(O)c(O)c1 [Tyrphostin AG 82],percent inhibition of IL-1 induced 35S release,"[1]; 50 μM, repeated assay",40%
same,inhibition of IL-1-induced upregulation of stromelysin mRNA levels,stromelysin mRNA; 50 μM,no effect
"O=C1NC(=O)c2cc(Nc3ccccc3)c(Nc3ccccc3)cc21 [DAPH, 4,5-dianilinophthalimide]",percent inhibition of IL-1 induced 35S release,"[1]; 2 μM, repeated assay",no inhibition
same,percent inhibition of IL-1 induced 35S release,"[1]; 20 μM, repeated assay",no inhibition
same,inhibition of IL-1-induced upregulation of stromelysin mRNA levels,stromelysin mRNA; 20 μM,Total inhibition
N#C/C(=C\c1ccc(O)c(O)c1)C(=O)NCCCCc1ccccc1 [Tyrphostin AG 556],percent inhibition of IL-1 induced 35S release,"[1]; 50 μM, repeated assay",100%
same,inhibition of IL-1-induced upregulation of stromelysin mRNA levels,stromelysin mRNA; 50 μM,Total inhibition
N#CC(C#N)=Cc1ccc([N+](=O)[O-])c(O)c1 [Tyrphostin AG 126],percent inhibition of IL-1 induced 35S release,"[1]; 50 μM, repeated assay",no inhibition
same,inhibition of IL-1-induced upregulation of stromelysin mRNA levels,stromelysin mRNA; 50 μM,no effect
O=c1c(-c2ccc(O)cc2)coc2cc(O)cc(O)c12 [Genistein],inhibition at 50 µM,"[1]; 50 μM, first experiment, 1 ng/ml rhIL-1α, read-out: inhibitory effect on IL-1 induced release of 35S-labelled proteoglycans",75 to 100%
same,inhibition at 50 µM,"[1]; 50 μM, repeated assay, read-out: percent inhibition of IL-1 induced 35S release",58%
same,inhibition of IL-1-induced upregulation of stromelysin mRNA levels,stromelysin mRNA; 50 μM,Total inhibition
CO[C@H]1[C@@H](OC)C[C@H](C)[C@@H](OC)C2=CC(=O)C=C(NC(=O)/C(C)=C/C=C\[C@H](OC)[C@@H](OC(N)=O)/C(C)=C/[C@@H]1C)C2=O [Herbimycin A],inhibition at 10 µM,"[1]; first experiment, 1 ng/ml rhIL-1α, read-out: inhibitory effect on IL-1 induced release of 35S-labelled proteoglycans",75 to 100%
same,inhibition at 10 µM,"[1]; repeated assay, read-out: percent inhibition of IL-1 induced 35S release",89%
same,inhibition of IL-1-induced upregulation of stromelysin mRNA levels,stromelysin mRNA; 10 μM,Total inhibition
